test system: OF1 mice; test: Maximal electroshock test (MES Test); assay type: in vivo; conditions: Mus musculus, po; 50 mg/kg, p.o., pre-treatment time −0.5 h (footnote d); read-out: %-Protection
How it was run: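 Compound given p.o. (typically 50 mg/kg) 1 h before tonic-clonic convulsions were induced via temporal electrodes (50 Hz, 18 mA, 0.2 s); seizure lasting 3 s or less counted as protection. Read-out is percent protected of five mice per condition; ED50 calculated, blood exposure sampled after shock.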

Row | Structure (SMILES) | responders at 50 mg/kg
1 | CC(=O)N(n1c(=O)[nH]c2cc(C(F)(F)F)c([C@H]3CCCO3)cc2c1=O)S(C)(=O)=O [Example 10.01, N-Acetyl-N—((R)-2,4-dioxo-6-tetrahydro-furan-2-yl-7-trifluoromethyl-1,4-dihydro-2H-quinazolin-3-yl)-methanesulfonamide] | 40%
2 | CCC(=O)N(n1c(=O)[nH]c2cc(C(F)(F)F)c([C@H]3CCCO3)cc2c1=O)S(C)(=O)=O [Example 10.02, N—((R)-2,4-Dioxo-6-tetrahydro-furan-2-yl-7-trifluoromethyl-1,4-dihydro-2H-quinazolin-3-yl)-N-propionyl-methanesulfonamide] | 60%
3 | CCCC(=O)N(n1c(=O)[nH]c2cc(C(F)(F)F)c([C@H]3CCCO3)cc2c1=O)S(C)(=O)=O [Example 10.03] | 60%

same assay, conditions: Mus musculus, po; 50 mg/kg, p.o., pre-treatment time −1 h; read-out: %-Protection

Row | Structure (SMILES) | responders at 50 mg/kg
4 | CCOC(=O)N(n1c(=O)[nH]c2cc(C(F)(F)F)c(-n3cccc3)cc2c1=O)S(C)(=O)=O [Example 8.05, (2,4-Dioxo-6-pyrrol-1-yl-7-trifluoromethyl-1,4-dihydro-2H-quinazolin-3-yl)-methanesulfonyl-carbamic acid ethyl ester] | 60%
5 | CCCCC(=O)N(n1c(=O)[nH]c2cc(C(F)(F)F)c(-n3cnnc3)cc2c1=O)S(C)(=O)=O [Example 9.03, N-(2,4-Dioxo-6-[1,2,4]triazol-4-yl-7-trifluoromethyl-1,4-dihydro-2H-quinazolin-3-yl)-N-pentanoyl-methanesulfonamide] | 20%
6 | CC(=O)N(n1c(=O)[nH]c2cc(C(F)(F)F)c([C@H]3CCCO3)cc2c1=O)S(C)(=O)=O [Example 10.01, N-Acetyl-N—((R)-2,4-dioxo-6-tetrahydro-furan-2-yl-7-trifluoromethyl-1,4-dihydro-2H-quinazolin-3-yl)-methanesulfonamide] | 80%
7 | CCC(=O)N(n1c(=O)[nH]c2cc(C(F)(F)F)c([C@H]3CCCO3)cc2c1=O)S(C)(=O)=O [Example 10.02, N—((R)-2,4-Dioxo-6-tetrahydro-furan-2-yl-7-trifluoromethyl-1,4-dihydro-2H-quinazolin-3-yl)-N-propionyl-methanesulfonamide] | 60%
8 | CCCC(=O)N(n1c(=O)[nH]c2cc(C(F)(F)F)c([C@H]3CCCO3)cc2c1=O)S(C)(=O)=O [Example 10.03] | 100%
9 | COC(=O)N(n1c(=O)[nH]c2cc(C(F)(F)F)c([C@H]3CCCO3)cc2c1=O)S(C)(=O)=O [Example 10.04, Methanesulfonyl-N—((R)-2,4-dioxo-6-tetrahydro-furan-2-yl-7-trifluoromethyl-1,4-dihydro-2H-quinazolin-3-yl)-carbamic acid methyl ester] | 20%
10 | CCOC(=O)N(n1c(=O)[nH]c2cc(C(F)(F)F)c([C@H]3CCCO3)cc2c1=O)S(C)(=O)=O [Example 10.05, Methanesulfonyl-N—((R)-2,4-dioxo-6-tetrahydro-furan-2-yl-7-trifluoromethyl-1,4-dihydro-2H-quinazolin-3-yl)-carbamic acid ethyl ester] | 40%
11 | CCCCOC(=O)N(n1c(=O)[nH]c2cc(C(F)(F)F)c([C@H]3CCCO3)cc2c1=O)S(C)(=O)=O [Example 10.06, Methanesulfonyl-N—((R)-2,4-dioxo-6-tetrahydro-furan-2-yl-7-trifluoromethyl-1,4-dihydro-2H-quinazolin-3-yl)-carbamic acid butyl ester] | 40%
12 | COCCOC(=O)N(n1c(=O)[nH]c2cc(C(F)(F)F)c([C@H]3CCCO3)cc2c1=O)S(C)(=O)=O [Example 10.07, Methanesulfonyl-N—((R)-2,4-dioxo-6-tetrahydro-furan-2-yl-7-trifluoromethyl-1,4-dihydro-2H-quinazolin-3-yl)-carbamic acid 2-methoxy-ethyl ester] | 60%
13 | CC(C)COC(=O)N(n1c(=O)[nH]c2cc(C(F)(F)F)c([C@H]3CCCO3)cc2c1=O)S(C)(=O)=O [Example 10.08, Methanesulfonyl-N—((R)-2,4-dioxo-6-tetrahydro-furan-2-yl-7-trifluoromethyl-1,4-dihydro-2H-quinazolin-3-yl)-carbamic acid isobutyl ester] | 20%
14 | CCCCCC(=O)N(n1c(=O)[nH]c2cc(C(F)(F)F)c([C@H]3CCCO3)cc2c1=O)S(C)(=O)=O [Example 10.09, N—((R)-2,4-Dioxo-6-tetrahydro-furan-2-yl-7-trifluoromethyl-1,4-dihydro-2H-quinazolin-3-yl)-N-hexanoyl-methanesulfonamide] | 60%
15 | CCOC(=O)CCC(=O)N(n1c(=O)[nH]c2cc(C(F)(F)F)c([C@H]3CCCO3)cc2c1=O)S(C)(=O)=O [Example 10.10] | 20%
16 | CCCCC(=O)N(n1c(=O)[nH]c2cc(C(F)(F)F)c([C@H]3CCCO3)cc2c1=O)S(C)(=O)=O [Example 10.11, N—((R)-2,4-Dioxo-6-tetrahydro-furan-2-yl-7-trifluoromethyl-1,4-dihydro-2H-quinazolin-3-yl)-N-pentanoyl-methanesulfonamide] | 20%
17 | CCC(OC)c1cc2c(=O)n(N(C(=O)OCCOC)S(C)(=O)=O)c(=O)[nH]c2cc1C(F)(F)F (centres unmarked) [Example 11.01, Methanesulfonyl-[6-(1-methoxy-propyl)-2,4-dioxo-7-trifluoromethyl-1,4-dihydro-2H-quinazolin-3-yl]-carbamic acid 2-methoxy-ethyl ester] | 60%
18 | CCC(=O)N(n1c(=O)[nH]c2cc(C(F)(F)F)c(C(CC)OC)cc2c1=O)S(C)(=O)=O (centres unmarked) [Example 11.02, N-[6-(1-Methoxy-propyl)-2,4-dioxo-7-trifluoromethyl-1,4-dihydro-2H-quinazolin-3-yl]-N-propionyl-methanesulfonamide] | 100%
19 | CCOC(=O)N(n1c(=O)[nH]c2cc(C(F)(F)F)c(C(CC)OC)cc2c1=O)S(C)(=O)=O (centres unmarked) [Example 11.03, Methanesulfonyl-[6-(1-methoxy-propyl)-2,4-dioxo-7-trifluoromethyl-1,4-dihydro-2H-quinazolin-3-yl]-carbamic acid ethyl ester] | 80%
20 | CCCOC(=O)N(n1c(=O)[nH]c2cc(C(F)(F)F)c(C(CC)OC)cc2c1=O)S(C)(=O)=O (centres unmarked) [Example 11.04, Methanesulfonyl-[6-(1-methoxy-propyl)-2,4-dioxo-7-trifluoromethyl-1,4-dihydro-2H-quinazolin-3-yl]-carbamic acid propyl ester] | 20%
21 | CCCCCC(=O)N(n1c(=O)[nH]c2cc(C(F)(F)F)c(C(CC)OC)cc2c1=O)S(C)(=O)=O (centres unmarked) [Example 11.05, N-Hexanoyl-N-[6-(1-Methoxy-propyl)-2,4-dioxo-7-trifluoromethyl-1,4-dihydro-2H-quinazolin-3-yl]-methanesulfonamide] | 80%
22 | CCC(OC)c1cc2c(=O)n(N(C(=O)C(C)C)S(C)(=O)=O)c(=O)[nH]c2cc1C(F)(F)F (centres unmarked) [Example 11.06, N-Isobutyryl-N-[6-(1-methoxy-propyl)-2,4-dioxo-7-trifluoromethyl-1,4-dihydro-2H-quinazolin-3-yl]-methanesulfonamide] | 100%
23 | CCCC(=O)N(n1c(=O)[nH]c2cc(C(F)(F)F)c(C(CC)OC)cc2c1=O)S(C)(=O)=O (centres unmarked) [Example 11.07, N-Butyryl-N-[6-(1-methoxy-propyl)-2,4-dioxo-7-trifluoromethyl-1,4-dihydro-2H-quinazolin-3-yl]-methanesulfonamide] | 100%
24 | CCC(OC)c1cc2c(=O)n(N(C(C)=O)S(C)(=O)=O)c(=O)[nH]c2cc1C(F)(F)F (centres unmarked) [Example 11.08, N-Acetyl-N-[6-(1-methoxy-propyl)-2,4-dioxo-7-trifluoromethyl-1,4-dihydro-2H-quinazolin-3-yl]-methanesulfonamide] | 80%
25 | CCC(OC)c1cc2c(=O)n(N(C(=O)OC)S(C)(=O)=O)c(=O)[nH]c2cc1C(F)(F)F (centres unmarked) [Example 11.09, Methanesulfonyl-[6-(1-methoxy-propyl)-2,4-dioxo-7-trifluoromethyl-1,4-dihydro-2H-quinazolin-3-yl]-carbamic acid methyl ester] | 80%
26 | CCC(OC)c1cc2c(=O)n(N(C(=O)OCC(C)C)S(C)(=O)=O)c(=O)[nH]c2cc1C(F)(F)F (centres unmarked) [Example 11.10, Methanesulfonyl-[6-(1-methoxy-propyl)-2,4-dioxo-7-trifluoromethyl-1,4-dihydro-2H-quinazolin-3-yl]-carbamic acid isobutyl ester] | 100%
27 | CCCCOC(=O)N(n1c(=O)[nH]c2cc(C(F)(F)F)c(C(CC)OC)cc2c1=O)S(C)(=O)=O (centres unmarked) [Example 11.11, Methanesulfonyl-[6-(1-methoxy-propyl)-2,4-dioxo-7-trifluoromethyl-1,4-dihydro-2H-quinazolin-3-yl]-carbamic acid butyl ester] | 60%
28 | CCCCCOC(=O)N(n1c(=O)[nH]c2cc(C(F)(F)F)c(C(CC)OC)cc2c1=O)S(C)(=O)=O (centres unmarked) [Example 11.12, Methanesulfonyl-[6-(1-methoxy-propyl)-2,4-dioxo-7-trifluoromethyl-1,4-dihydro-2H-quinazolin-3-yl]-carbamic acid pentyl ester] | 20%
29 | CCCCCCOC(=O)N(n1c(=O)[nH]c2cc(C(F)(F)F)c(C(CC)OC)cc2c1=O)S(C)(=O)=O (centres unmarked) [Example 11.13, Methanesulfonyl-[6-(1-methoxy-propyl)-2,4-dioxo-7-trifluoromethyl-1,4-dihydro-2H-quinazolin-3-yl]-carbamic acid hexyl ester] | 60%

same assay, conditions: Mus musculus, po; 50 mg/kg, p.o., pre-treatment time −2 h (footnote a); read-out: %-Protection

Row | Structure (SMILES) | responders at 50 mg/kg
30 | CC(C)CC(=O)N(n1c(=O)[nH]c2cc(C(F)(F)F)c(-n3cnnc3)cc2c1=O)S(C)(=O)=O [Example 9.01, N-(2,4-Dioxo-6-[1,2,4]triazol-4-yl-7-trifluoromethyl-1,4-dihydro-2H-quinazolin-3-yl)-N-(3-methyl-butyryl)-methanesulfonamide] | 40%
31 | CCCCCC(=O)N(n1c(=O)[nH]c2cc(C(F)(F)F)c(-n3cnnc3)cc2c1=O)S(C)(=O)=O [Example 9.02, N-(2,4-Dioxo-6-[1,2,4]triazol-4-yl-7-trifluoromethyl-1,4-dihydro-2H-quinazolin-3-yl)-N-hexanoyl-methanesulfonamide] | 20%
32 | CCCC(=O)N(n1c(=O)[nH]c2cc(C(F)(F)F)c(-n3cnnc3)cc2c1=O)S(C)(=O)=O [Example 9.04, N-Butyryl-N-(2,4-dioxo-6-[1,2,4]triazol-4-yl-7-trifluoromethyl-1,4-dihydro-2H-quinazolin-3-yl)-methanesulfonamide] | 20%

— US20130053381A1, “2,4-DIOXO-1,4-DIHYDRO-2H-QUINAZOLIN-3-YL-SULFONAMIDE DERIVATIVES” (NOVARTIS AG, priority 2010, published 2013)
